Like-named read-outs stand apart in the source and are kept apart here.
How the values were obtained:
Human HERG = target: T1, Human HERG (Homo sapiens, UniProt Q12809); test: Human dofetilide binding assay
T1 construct: expressed in transfected cells; host or cells: HEK293S (membrane homogenate)
Protocol: Human Dofetilide Binding Assay
Human HERG transfected HEK293S cells were prepared and grown in-house. The collected cells were suspended in 50 mM Tris-HCl (pH 7.4 at 4° C.) and homogenized using a hand held Polytron PT 1200 disruptor set at full power for 20 sec on ice. The homogenates were centrifuged at 48,000×g at 4° C. for 20 min. The pellets were then resuspended, homogenized, and centrifuged once more in the same manner. The final pellets were resuspended in an appropriate volume of 50 mM Tris-HCl, 10 mM KCl, 1 mM MgCl2 (pH 7.4 at 4° C.), homogenized, aliquoted and stored at −80° C. until use. An aliquot of membrane fractions was used for protein concentration determination using BCA protein assay kit (PIERCE) and ARVOsx plate reader (Wallac). Binding assays were conducted in a total volume of 30 microL in 384-well plates. The activity was measured by PHERAstar (BMG LABTECH) using fluorescence polarization technology. Ten microL of test compounds were incubated with 10 microL of fluorescence ligand (6 nM Cy3B tagged dofetilide derivative) and 10 microL of membrane homogenate (6 microg protein) for 120 minutes at room temperature. Nonspecific binding was determined by 10 microM E4031 at the final concentration.

human Nav1.7 channels = target: T2, human Nav1.7 channels (Homo sapiens, UniProt Q15858); test: FRET Assay (Method A), human Nav1.7; assay type: cell-based
T2 construct: expressed in transfected cells; host or cells: CHO
Protocol: (§1) The ability of the aryl substituted carboxamid derivatives of the formula (I) to inhibit the NaV1.3, Nav1.7 and Nav1.5 channels was measured by Fluorescence Resonance Energy Transfer (FRET) assay and electrophysiology assay described below.
(§2) This screen was used to determine the effects of compounds on human NaV1.3, human Nav1.7, and human Nav1.5 channels, utilising the cell imaging technology by Hamamatsu Photonics's Functional Drug Screening System (FDSS). The change of membrane potential was monitored with fluorescent membrane potential dye pair, oxonol (DiSBAC2(3)) and coumarin (CC2-DMPE), using FRET technology.
CHO cells expressing human NaV1.7 channels were grown in T225 flasks, in a 5% CO2 humidified incubator to about 80% confluence. Media composition consisted of HAM/F12 with Glutamax I, 10% FCS, 100 units/ml Penicillin and 100 microgram/ml Hygromycin.
Protocol: • Seeded each cell lines (1.5×10^4 cells/well) into poly-D-lysine coated 384-well plates prior to experimentation. • Incubated at 37° C. in 5% CO2 for 24 hours. • Washed each well with buffer #1 (140 mM NaCl, 4.5 mM KCl, 10 mM D-Glucose, 2 mM CaCl2, 1 mM MgCl2, 10 mM HEPES, pH 7.4 adjusted with NaOH) twice. • Added 1st loading solution containing 5 microM CC2-DMPE and 0.02% Pluronic F-127 in buffer #1. • Incubated the plate at room temperature in dark for 0.5 hours. • Washed each well with buffer #2 (160 mM Choline, 10 mM D-Glucose, 0.1 mM CaCl2, 1 mM MgCl2, 10 mM HEPES, pH 7.4 adjusted with KOH) twice. • Added 2nd loading solution containing 15 microM DiSBAC2(3), 0.5 mM VABSC-1, 10 microM veratridine and 0.004% Pluronic F-127 in buffer #2. • Added compound solutions into the assay plate for 30 minutes under the dark at room temperature. • Measured the activity by FDSS.
(§3) The data were analyzed and reported as normalized ratios of intensities measured in the 465 nm and 575 nm channels. […]
(§4) “FI465B”=the mean of fluorescence intensity as baseline (before Na+ ligand addition) at 465 nm
“FI575B”=the mean of fluorescence intensity as baseline (before Na+ ligand addition) at 575 nm […]

human NaV1.3 channels = target: T3, human NaV1.3 channels (Homo sapiens, UniProt Q9NY46); test: FRET Assay (Method A), human NaV1.3; assay type: cell-based; details: read-out: against Nav1.3 in FRET Assay (Method A)
T3 construct: expressed in transfected cells; host or cells: HEK293
Protocol: as §1
as §2, with “technology. […]” for “technology.”
as §3, §4
“FI575B”=the mean of fluorescence intensity as baseline (before Na+ ligand addition) at 575 nm
“FI465Max”=maximum fluorescence intensity at 465 nm after Na+ stimulation
“FI575 Min”=minimum fluorescence intensity at 575 nm after Na+ stimulation
This analysis was performed using a computerized specific program designed for FDSS generated data. Fluorescence ratio values were plotted using XLfit to determine an IC50 value for each compound.

[1] = Table 5, method A or B not stated, read-out: IC50 in the Nav1.7 FRET Assay

T2 sequence (Q15858 whole entry): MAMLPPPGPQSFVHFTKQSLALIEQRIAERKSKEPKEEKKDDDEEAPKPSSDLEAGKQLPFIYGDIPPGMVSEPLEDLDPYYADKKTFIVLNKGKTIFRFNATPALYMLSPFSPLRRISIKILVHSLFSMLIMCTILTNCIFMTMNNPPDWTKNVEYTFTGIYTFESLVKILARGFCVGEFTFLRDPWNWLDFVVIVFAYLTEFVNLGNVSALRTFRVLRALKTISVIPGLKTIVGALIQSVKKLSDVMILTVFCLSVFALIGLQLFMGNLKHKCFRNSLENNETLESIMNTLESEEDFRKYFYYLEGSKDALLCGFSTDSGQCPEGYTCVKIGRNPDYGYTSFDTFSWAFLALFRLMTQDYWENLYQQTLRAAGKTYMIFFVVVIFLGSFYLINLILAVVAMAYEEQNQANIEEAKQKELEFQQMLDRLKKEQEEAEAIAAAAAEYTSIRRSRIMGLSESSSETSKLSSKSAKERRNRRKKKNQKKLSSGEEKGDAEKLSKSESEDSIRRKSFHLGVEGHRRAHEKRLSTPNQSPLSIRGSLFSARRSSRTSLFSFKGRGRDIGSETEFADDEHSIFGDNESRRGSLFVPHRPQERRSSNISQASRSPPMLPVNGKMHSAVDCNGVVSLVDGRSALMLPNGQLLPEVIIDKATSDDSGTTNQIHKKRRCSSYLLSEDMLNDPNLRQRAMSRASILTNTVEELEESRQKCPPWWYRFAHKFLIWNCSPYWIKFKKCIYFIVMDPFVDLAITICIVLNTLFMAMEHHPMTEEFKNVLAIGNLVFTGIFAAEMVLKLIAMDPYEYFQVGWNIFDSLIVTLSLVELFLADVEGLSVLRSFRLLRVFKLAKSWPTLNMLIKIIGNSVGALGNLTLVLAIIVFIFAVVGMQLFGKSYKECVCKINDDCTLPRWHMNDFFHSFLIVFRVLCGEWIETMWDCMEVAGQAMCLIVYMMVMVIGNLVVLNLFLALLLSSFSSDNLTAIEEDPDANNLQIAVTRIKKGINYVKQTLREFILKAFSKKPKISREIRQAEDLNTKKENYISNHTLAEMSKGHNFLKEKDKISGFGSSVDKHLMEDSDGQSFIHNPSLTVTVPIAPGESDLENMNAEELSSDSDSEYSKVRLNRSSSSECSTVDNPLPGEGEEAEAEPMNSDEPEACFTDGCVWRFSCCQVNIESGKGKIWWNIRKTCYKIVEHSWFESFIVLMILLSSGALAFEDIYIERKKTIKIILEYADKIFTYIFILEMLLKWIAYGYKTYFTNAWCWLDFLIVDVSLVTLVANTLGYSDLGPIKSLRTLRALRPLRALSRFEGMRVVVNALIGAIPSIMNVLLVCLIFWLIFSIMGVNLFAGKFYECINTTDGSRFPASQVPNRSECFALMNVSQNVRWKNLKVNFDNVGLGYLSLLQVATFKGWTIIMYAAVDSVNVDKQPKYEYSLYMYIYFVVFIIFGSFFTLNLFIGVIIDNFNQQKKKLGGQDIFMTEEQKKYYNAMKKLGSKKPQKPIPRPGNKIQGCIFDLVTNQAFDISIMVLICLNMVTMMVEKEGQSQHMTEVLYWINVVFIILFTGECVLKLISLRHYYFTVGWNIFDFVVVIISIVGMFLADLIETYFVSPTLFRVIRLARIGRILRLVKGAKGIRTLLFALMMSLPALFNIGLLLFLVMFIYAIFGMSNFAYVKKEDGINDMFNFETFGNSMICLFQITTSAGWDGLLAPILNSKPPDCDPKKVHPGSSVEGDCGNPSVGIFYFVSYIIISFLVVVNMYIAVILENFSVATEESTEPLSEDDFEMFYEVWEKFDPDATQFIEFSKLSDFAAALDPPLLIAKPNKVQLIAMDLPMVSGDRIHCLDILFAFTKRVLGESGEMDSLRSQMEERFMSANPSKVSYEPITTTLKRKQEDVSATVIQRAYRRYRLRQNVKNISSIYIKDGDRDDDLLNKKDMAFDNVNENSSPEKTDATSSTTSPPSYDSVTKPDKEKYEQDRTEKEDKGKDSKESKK
T1 sequence (Q12809 whole entry): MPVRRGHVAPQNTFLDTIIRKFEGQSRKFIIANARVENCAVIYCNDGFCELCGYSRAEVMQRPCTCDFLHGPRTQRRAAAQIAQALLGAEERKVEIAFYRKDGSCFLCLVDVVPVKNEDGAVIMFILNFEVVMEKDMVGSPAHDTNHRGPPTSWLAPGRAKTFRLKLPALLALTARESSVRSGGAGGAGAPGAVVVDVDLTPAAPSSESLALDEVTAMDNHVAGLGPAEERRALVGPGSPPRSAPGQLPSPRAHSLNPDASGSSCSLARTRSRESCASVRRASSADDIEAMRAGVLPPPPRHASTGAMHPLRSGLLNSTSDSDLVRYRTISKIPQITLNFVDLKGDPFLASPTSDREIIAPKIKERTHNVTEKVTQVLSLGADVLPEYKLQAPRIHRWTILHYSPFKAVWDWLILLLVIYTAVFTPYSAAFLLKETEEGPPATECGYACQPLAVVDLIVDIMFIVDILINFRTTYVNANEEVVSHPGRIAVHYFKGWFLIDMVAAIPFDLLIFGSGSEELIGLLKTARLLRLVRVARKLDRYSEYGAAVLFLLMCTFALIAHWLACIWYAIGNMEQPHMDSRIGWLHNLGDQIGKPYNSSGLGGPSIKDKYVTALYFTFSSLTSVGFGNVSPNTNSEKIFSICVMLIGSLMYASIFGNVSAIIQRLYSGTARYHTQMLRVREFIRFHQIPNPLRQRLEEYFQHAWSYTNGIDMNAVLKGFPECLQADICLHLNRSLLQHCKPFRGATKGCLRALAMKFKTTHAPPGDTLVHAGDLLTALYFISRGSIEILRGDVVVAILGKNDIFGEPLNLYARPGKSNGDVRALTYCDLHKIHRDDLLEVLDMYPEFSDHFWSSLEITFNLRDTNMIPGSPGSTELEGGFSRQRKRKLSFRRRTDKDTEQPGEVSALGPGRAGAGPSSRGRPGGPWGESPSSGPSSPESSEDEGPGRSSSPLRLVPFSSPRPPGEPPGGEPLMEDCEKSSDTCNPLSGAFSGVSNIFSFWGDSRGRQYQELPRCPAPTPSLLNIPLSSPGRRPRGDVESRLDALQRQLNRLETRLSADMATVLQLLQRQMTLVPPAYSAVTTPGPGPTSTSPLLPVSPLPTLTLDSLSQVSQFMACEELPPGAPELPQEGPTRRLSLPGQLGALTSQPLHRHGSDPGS
T3 sequence (Q9NY46 whole entry): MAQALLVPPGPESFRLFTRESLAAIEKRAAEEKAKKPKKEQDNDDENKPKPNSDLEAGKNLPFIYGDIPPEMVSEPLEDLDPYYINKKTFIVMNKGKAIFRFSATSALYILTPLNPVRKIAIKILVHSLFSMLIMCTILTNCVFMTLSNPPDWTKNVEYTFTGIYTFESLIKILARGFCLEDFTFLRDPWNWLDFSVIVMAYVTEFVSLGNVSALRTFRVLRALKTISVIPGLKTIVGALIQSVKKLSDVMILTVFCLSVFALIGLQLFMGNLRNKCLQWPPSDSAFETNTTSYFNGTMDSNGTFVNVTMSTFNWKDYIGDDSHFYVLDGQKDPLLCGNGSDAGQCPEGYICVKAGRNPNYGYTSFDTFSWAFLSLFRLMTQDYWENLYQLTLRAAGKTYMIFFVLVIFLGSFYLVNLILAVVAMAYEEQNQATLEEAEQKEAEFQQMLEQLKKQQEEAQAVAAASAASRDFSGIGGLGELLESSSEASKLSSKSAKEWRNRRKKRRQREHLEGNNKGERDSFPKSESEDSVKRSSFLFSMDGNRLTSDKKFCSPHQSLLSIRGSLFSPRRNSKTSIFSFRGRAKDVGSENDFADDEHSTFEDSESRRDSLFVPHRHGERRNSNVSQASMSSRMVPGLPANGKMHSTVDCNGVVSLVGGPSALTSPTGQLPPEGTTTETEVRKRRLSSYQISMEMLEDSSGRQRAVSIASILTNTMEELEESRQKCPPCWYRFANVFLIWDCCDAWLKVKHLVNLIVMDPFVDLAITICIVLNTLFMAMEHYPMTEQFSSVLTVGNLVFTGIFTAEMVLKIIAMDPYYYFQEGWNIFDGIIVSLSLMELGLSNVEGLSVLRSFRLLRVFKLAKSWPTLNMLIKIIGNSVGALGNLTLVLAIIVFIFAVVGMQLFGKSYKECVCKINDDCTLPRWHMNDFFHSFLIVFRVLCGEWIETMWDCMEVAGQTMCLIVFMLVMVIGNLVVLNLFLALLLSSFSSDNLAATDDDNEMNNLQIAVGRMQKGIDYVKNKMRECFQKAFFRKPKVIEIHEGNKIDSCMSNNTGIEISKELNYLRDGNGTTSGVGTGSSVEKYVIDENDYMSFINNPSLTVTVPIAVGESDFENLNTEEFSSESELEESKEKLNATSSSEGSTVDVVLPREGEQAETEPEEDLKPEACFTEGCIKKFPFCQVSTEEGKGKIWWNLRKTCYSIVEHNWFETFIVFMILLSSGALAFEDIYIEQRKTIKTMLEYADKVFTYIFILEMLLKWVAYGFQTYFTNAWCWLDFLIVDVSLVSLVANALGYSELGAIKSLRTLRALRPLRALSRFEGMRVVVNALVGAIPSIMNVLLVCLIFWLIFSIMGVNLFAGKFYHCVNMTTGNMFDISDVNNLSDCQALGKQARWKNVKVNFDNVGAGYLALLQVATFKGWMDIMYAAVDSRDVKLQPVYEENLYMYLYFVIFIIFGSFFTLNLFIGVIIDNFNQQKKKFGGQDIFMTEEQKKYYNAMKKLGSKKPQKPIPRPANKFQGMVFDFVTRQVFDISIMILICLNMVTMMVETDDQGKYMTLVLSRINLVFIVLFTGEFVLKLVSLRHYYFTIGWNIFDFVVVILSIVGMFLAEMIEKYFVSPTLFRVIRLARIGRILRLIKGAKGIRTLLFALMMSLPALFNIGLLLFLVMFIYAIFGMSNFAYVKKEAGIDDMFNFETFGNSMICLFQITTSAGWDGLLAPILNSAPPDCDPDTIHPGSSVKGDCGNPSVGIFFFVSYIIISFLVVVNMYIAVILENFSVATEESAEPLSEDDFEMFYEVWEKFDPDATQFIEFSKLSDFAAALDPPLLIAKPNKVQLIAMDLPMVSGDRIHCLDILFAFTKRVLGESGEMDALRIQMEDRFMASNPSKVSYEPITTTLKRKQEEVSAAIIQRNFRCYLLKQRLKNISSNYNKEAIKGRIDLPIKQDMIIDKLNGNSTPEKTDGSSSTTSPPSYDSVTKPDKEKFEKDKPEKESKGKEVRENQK

Row | SMILES | IC50 (Human HERG) [µM] | IC50 (human Nav1.7 channels; [1]) [nM] | IC50 (human NaV1.3 channels) [µM] | IC50 (human Nav1.7 channels; read-out: against Nav1.7 in FRET Assay (Method A)) [nM]
1 | O=C(c1cnc2ccccc2c1)N1CCC(Oc2ccc(Cl)cc2)CC1 [Example 10, (4-(4-chlorophenoxy)piperidin-1-yl)(quinolin-3-yl) methanone] | 7.91 | 360 |  | 
2 | O=c1[nH]ccnc1CN1CCC(COc2ccccc2)CC1 [Example 198 in WO 2003/084948, 3-((4-(phenoxymethyl)piperidin-1-yl)methyl)pyrazin-2(1H)-one, reference compound] |  |  | > 30 | 15000
3 | Clc1ccc(OC2CCN(Cc3cnc4ccccc4c3)CC2)cc1 [Example 726] | 0.28 | 470 |  | 

Source: patent publication US9051296B2, “Aryl carboxamide derivatives as TTX-S blockers” (RaQualia Pharma Inc., priority 2009, dated 2015)
